Here are results for 23 molecules from patent US20130131043A1, “PYRAZOLE COMPOUNDS AS JAK INHIBITORS” (priority 2010, published 2013).

Experiment [1] concerns the target T1, JAK3 (Homo sapiens, UniProt P52333).
T1 construct: endogenous in cells; host or cells: Molt4 (ATCC CRL-1582) and Ramos (ATCC CRL-1596) cell lysate; mixed Molt4/Ramos lysate 1:2
T1 sequence (P52333 1-1124): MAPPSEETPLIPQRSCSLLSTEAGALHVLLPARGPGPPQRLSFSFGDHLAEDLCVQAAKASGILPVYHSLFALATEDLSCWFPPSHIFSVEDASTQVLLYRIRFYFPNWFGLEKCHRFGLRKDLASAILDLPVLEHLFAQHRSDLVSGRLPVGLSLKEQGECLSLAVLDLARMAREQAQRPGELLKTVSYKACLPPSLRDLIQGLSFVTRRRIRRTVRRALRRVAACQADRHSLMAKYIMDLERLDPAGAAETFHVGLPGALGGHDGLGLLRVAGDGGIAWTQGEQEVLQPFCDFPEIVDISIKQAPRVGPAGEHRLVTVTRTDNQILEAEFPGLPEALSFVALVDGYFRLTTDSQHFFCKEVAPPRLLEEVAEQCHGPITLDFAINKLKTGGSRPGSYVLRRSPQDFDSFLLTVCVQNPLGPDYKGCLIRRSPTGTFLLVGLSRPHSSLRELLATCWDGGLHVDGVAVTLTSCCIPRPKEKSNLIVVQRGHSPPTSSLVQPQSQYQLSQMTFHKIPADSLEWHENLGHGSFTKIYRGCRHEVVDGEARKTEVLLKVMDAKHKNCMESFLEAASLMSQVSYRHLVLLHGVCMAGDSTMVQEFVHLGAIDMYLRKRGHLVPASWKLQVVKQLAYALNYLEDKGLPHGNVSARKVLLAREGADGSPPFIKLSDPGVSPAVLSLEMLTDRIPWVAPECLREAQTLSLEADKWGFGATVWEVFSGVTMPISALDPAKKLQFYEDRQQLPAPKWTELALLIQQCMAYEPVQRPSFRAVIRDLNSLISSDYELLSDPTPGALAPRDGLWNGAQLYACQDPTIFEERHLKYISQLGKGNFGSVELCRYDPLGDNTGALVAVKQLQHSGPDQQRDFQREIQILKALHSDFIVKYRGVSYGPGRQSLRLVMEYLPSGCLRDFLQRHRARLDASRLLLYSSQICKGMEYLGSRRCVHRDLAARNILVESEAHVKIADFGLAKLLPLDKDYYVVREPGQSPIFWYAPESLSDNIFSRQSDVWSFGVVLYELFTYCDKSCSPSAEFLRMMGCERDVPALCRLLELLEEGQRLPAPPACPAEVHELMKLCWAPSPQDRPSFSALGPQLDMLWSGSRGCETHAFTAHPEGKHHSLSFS
Description: Kinobeads assay, JAK3 (competition binding in cell lysate, dot blot detection). Particulars: mixed Molt4/Ramos lysate. In a few lines:
(§1)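 Competition binding of compound against immobilized aminopyrido-pyrimidine affinity beads in mixed Molt4/Ramos lysate (1:2, 10 mg/mL protein), 3 h in cold room. Bead-bound JAK2 or JAK3 eluted and quantified by antibody dot blot with infrared detection; IC50 from 9-step 1:3 dose-response curves.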

The target in experiment [2] is T2, JAK2 (Homo sapiens, UniProt O60674).
T2 construct: endogenous in cells; host or cells: Molt4 (ATCC CRL-1582) and Ramos (ATCC CRL-1596) cell lysate; mixed Molt4/Ramos lysate 1:2
Description: Kinobeads assay, JAK2 (competition binding in cell lysate, dot blot detection). Conditions: mixed Molt4/Ramos lysate. In a few lines:
as §1

T2 sequence (O60674 whole entry): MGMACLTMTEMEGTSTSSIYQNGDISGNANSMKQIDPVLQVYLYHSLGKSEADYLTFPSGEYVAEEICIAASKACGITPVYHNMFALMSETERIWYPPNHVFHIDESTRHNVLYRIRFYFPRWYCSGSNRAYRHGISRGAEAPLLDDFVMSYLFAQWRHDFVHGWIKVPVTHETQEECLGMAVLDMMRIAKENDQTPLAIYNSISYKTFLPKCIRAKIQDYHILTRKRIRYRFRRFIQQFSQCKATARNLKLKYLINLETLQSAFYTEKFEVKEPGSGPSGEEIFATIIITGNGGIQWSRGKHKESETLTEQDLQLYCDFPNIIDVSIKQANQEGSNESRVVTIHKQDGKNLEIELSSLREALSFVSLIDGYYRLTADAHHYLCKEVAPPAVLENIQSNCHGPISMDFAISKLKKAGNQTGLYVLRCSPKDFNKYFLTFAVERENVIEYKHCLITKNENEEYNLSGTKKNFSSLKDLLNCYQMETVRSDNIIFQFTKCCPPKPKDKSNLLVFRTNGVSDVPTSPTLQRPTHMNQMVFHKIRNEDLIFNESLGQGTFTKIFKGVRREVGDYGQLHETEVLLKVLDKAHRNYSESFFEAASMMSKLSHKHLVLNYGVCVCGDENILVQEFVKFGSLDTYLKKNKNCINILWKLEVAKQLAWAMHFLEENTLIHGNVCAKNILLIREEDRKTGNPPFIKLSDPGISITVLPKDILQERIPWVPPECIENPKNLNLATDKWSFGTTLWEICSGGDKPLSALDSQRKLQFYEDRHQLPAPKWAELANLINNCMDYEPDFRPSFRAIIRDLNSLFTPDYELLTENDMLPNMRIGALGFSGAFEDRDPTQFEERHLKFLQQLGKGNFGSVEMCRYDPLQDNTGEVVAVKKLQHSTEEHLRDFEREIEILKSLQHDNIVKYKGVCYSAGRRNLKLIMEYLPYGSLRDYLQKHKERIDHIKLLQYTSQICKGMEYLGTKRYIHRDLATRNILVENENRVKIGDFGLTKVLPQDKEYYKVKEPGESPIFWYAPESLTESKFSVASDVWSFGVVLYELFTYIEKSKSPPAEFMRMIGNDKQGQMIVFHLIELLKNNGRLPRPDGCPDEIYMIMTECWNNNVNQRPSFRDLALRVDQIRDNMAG

The term IC50 denotes the concentration needed to halve the response being measured. A high value points to weaker potency in that assay. Consider `CCS(=O)(=O)N1CCC(Cn2ncc3cnc(Nc4cnn(C)c4)nc32)C1` (stereo not shown) [Example 42, 1-((1-(ethylsulfonyl)pyrrolidin-3-yl)methyl)-N-(1-methyl-1H-pyrazol-4-yl)-1H-pyrazolo[3,4-d]pyrimidin-6-amine], for which the IC50 was 100 to 1000 nM in experiment [1] and greater than 10000 nM in experiment [2].

With `Cn1cc(Nc2ncc3cnn(CC4CCN(S(=O)(=O)C5CC5)C4)c3n2)cn1` (stereo not shown) [Example 43, 1-((1-(cyclopropylsulfonyl)pyrrolidin-3-yl)methyl)-N-(1-methyl-1H-pyrazol-4-yl)-1H-pyrazolo[3,4-d]pyrimidin-6-amine], the IC50 was 100 to 1000 nM in experiment [1] and greater than 10000 nM in experiment [2].

Consider `Cn1cc(Nc2ncc3cnn(CC4CCCN(C(=O)OCCF)C4)c3n2)cn1` (stereo not shown) [Example 44, 2-fluoroethyl 3-((6-((1-methyl-1H-pyrazol-4-yl)amino)-1H-pyrazolo[3,4-d]pyrimidin-1-yl)methyl)piperidine-1-carboxylate], for which the IC50 is 100 to 1000 nM in experiment [1] and greater than 10000 nM in experiment [2].

For the molecule `COCCOC(=O)N1CCCC(Cn2ncc3cnc(Nc4cnn(C)c4)nc32)C1` (stereo not shown) [Example 45, 2-methoxyethyl 3-((6-((1-methyl-1H-pyrazol-4-yl)amino)-1H-pyrazolo[3,4-d]pyrimidin-1-yl)methyl)piperidine-1-carboxylate], the IC50 in experiment [1] is 100 to 1000 nM; in experiment [2] it was greater than 10000 nM.

For the molecule `Cn1cc(Nc2ncc3cnn(CC4CCCN(CCS(C)(=O)=O)C4)c3n2)cn1` (stereo not shown) [Example 46, N-(1-methyl-1H-pyrazol-4-yl)-1-((1-(2-(methylsulfonyl)ethyl)piperidin-3-yl)methyl)-1H-pyrazolo[3,4-d]pyrimidin-6-amine], the IC50 in experiment [1] is less than 100 nM; in experiment [2] it was 1000 to 10000 nM.

As to `Cn1cc(Nc2ncc3cnn(CC4CCCN(C(=O)C(F)(F)F)C4)c3n2)cn1` (stereo not shown) [Example 47, 2,2,2-trifluoro-1-(3-((6-((1-methyl-1H-pyrazol-4-yl)amino)-1H-pyrazolo[3,4-d]pyrimidin-1-yl)methyl)piperidin-1-yl)ethanone], the IC50 in experiment [1] lay within 100 to 1000 nM; in experiment [2] it was 1000 to 10000 nM.

Take `Cn1cc(Nc2ncc3cnn(CC4CCN(S(C)(=O)=O)C4)c3n2)cn1` (stereo not shown) [Example 48, N-(1-methyl-1H-pyrazol-4-yl)-1-((1-(methylsulfonyl)pyrrolidin-3-yl)methyl)-1H-pyrazolo[3,4-d]pyrimidin-6-amine]: the IC50 is 100 to 1000 nM in experiment [1] and greater than 10000 nM in experiment [2].

For the molecule `Cn1cc(Nc2ncc3cnn(CC4CN(CCC#N)C4)c3n2)cn1` [Example 49, 3-(3-((6-((1-methyl-1H-pyrazol-4-yl)amino)-1H-pyrazolo[3,4-d]pyrimidin-1-yl)methyl)azetidin-1-yl)propanenitrile], the IC50 in experiment [1] was 100 to 1000 nM; in experiment [2], greater than 10000 nM.

For the molecule `CCNC(=O)N1CCCC(Cn2ncc3cnc(Nc4cnn(C)c4)nc32)C1` (stereo not shown) [Example 51, N-ethyl-3-((6-((1-methyl-1H-pyrazol-4-yl)amino)-1H-pyrazolo[3,4-d]pyrimidin-1-yl)methyl)piperidine-1-carboxamide], the IC50 is less than 100 nM in experiment [1] and 1000 to 10000 nM in experiment [2].

Consider `Cn1cc(Nc2ncc3cnn(CC4CCCN(C(=O)NC5CC5)C4)c3n2)cn1` (stereo not shown) [Example 52, N-cyclopropyl-3-((6-((1-methyl-1H-pyrazol-4-yl)amino)-1H-pyrazolo[3,4-d]pyrimidin-1-yl)methyl)piperidine-1-carboxamide], for which the IC50 in experiment [1] is less than 100 nM; in experiment [2], 1000 to 10000 nM.

As to `Cn1cc(Nc2ncc3cnn(CC4CCN(CCC#N)C4)c3n2)cn1` (stereo not shown) [Example 53, 3-(3-((6-((1-methyl-1H-pyrazol-4-yl)amino)-1H-pyrazolo[3,4-d]pyrimidin-1-yl)methyl)pyrrolidin-1-yl)propanenitrile], the IC50 was less than 100 nM in experiment [1] and 1000 to 10000 nM in experiment [2].

As for `Cn1cc(Nc2ncc3cnn(CC4CCCN(CC#N)C4)c3n2)cn1` (stereo not shown) [Example 54, 2-(3-((6-((1-methyl-1H-pyrazol-4-yl)amino)-1H-pyrazolo[3,4-d]pyrimidin-1-yl)methyl)piperidin-1-yl)acetonitrile], the IC50 was less than 100 nM in experiment [1] and 1000 to 10000 nM in experiment [2].

On to `CCN1CCCC(Cn2ncc3cnc(Nc4cnn(C)c4)nc32)C1` (stereo not shown) [Example 55, 1-((1-ethylpiperidin-3-yl)methyl)-N-(1-methyl-1H-pyrazol-4-yl)-1H-pyrazolo[3,4-d]pyrimidin-6-amine], for which the IC50 in experiment [1] is less than 100 nM; in experiment [2], 1000 to 10000 nM.

Consider `CSCCC(=O)N1CCCC(Cn2ncc3cnc(Nc4cnn(CC(F)F)c4)nc32)C1` (stereo not shown) [Example 56, 1-(3-((6-((1-(2,2-difluoroethyl)-1H-pyrazol-4-yl)amino)-1H-pyrazolo[3,4-d]pyrimidin-1-yl)methyl)piperidin-1-yl)-3-(methylthio)propan-1-one], for which the IC50 in experiment [1] was 100 to 1000 nM; in experiment [2], greater than 10000 nM.

In the case of `N#CCCN1CCCC(Cn2ncc3cnc(Nc4cnn(CC(F)F)c4)nc32)C1` (stereo not shown) [Example 57, 3-(3-((6-((1-(2,2-difluoroethyl)-1H-pyrazol-4-yl)amino)-1H-pyrazolo[3,4-d]pyrimidin-1-yl)methyl)piperidin-1-yl)propanenitrile], the IC50 in experiment [1] is less than 100 nM; in experiment [2] it was greater than 10000 nM.

Take `COCCCN1CCCC(Cn2ncc3cnc(Nc4cnn(C)c4)nc32)C1` (stereo not shown) [Example 58, 1-((1-(3-methoxypropyl)piperidin-3-yl)methyl)-N-(1-methyl-1H-pyrazol-4-yl)-1H-pyrazolo[3,4-d]pyrimidin-6-amine]: the results for the IC50 in experiment [1] and in experiment [2] were 100 to 1000 nM and greater than 10000 nM, respectively.

For the molecule `CS(=O)(=O)CCC(=O)N1CCCC(Cn2ncc3cnc(Nc4cnn(CC(F)F)c4)nc32)C1` (stereo not shown) [Example 59, 1-(3-((6-((1-(2,2-difluoroethyl)-1H-pyrazol-4-yl)amino)-1H-pyrazolo[3,4-d]pyrimidin-1-yl)methyl)piperidin-1-yl)-3-(methylsulfonyl)propan-1-one], the IC50 in experiment [1] is 100 to 1000 nM; in experiment [2], greater than 10000 nM.

On to `N#CCN1CCCC(Cn2ncc3cnc(Nc4cnn(CC(F)F)c4)nc32)C1` (stereo not shown) [Example 60, 2-(3-((6-((1-(2,2-difluoroethyl)-1H-pyrazol-4-yl)amino)-1H-pyrazolo[3,4-d]pyrimidin-1-yl)methyl)piperidin-1-yl)acetonitrile], for which the IC50 in experiment [1] was 100 to 1000 nM; in experiment [2], 1000 to 10000 nM.

Regarding `CC(C)S(=O)(=O)N1CCCC(Cn2ncc3cnc(Nc4cnn(CC(F)F)c4)nc32)C1` (stereo not shown) [Example 61, N-(1-(2,2-difluoroethyl)-1H-pyrazol-4-yl)-1-((1-(isopropylsulfonyl)piperidin-3-yl)methyl)-1H-pyrazolo[3,4-d]pyrimidin-6-amine], the IC50 in experiment [1] was less than 100 nM; in experiment [2] it was 1000 to 10000 nM.

Consider `Cn1cc(Nc2ncc3cnn(CC4CCCN(CCCS(C)(=O)=O)C4)c3n2)cn1` (stereo not shown) [Example 62, N-(1-methyl-1H-pyrazol-4-yl)-1-((1-(3-(methylsulfonyl)propyl)piperidin-3-yl)methyl)-1H-pyrazolo[3,4-d]pyrimidin-6-amine], for which the IC50 in experiment [1] was less than 100 nM; in experiment [2], 1000 to 10000 nM.

`CC(C)NC(=O)CN1CCCC(Cn2ncc3cnc(Nc4cnn(C)c4)nc32)C1` (stereo not shown) [Example 63, N-isopropyl-2-(3-((6-((1-methyl-1H-pyrazol-4-yl)amino)-1H-pyrazolo[3,4-d]pyrimidin-1-yl)methyl)piperidin-1-yl)acetamide]: the IC50 was 100 to 1000 nM in experiment [1] and greater than 10000 nM in experiment [2].

For the molecule `CNC(=O)CN1CCCC(Cn2ncc3cnc(Nc4cnn(C)c4)nc32)C1` (stereo not shown) [Example 64, N-methyl-2-(3-((6-((1-methyl-1H-pyrazol-4-yl)amino)-1H-pyrazolo[3,4-d]pyrimidin-1-yl)methyl)piperidin-1-yl)acetamide], the IC50 in experiment [1] was less than 100 nM; in experiment [2], 1000 to 10000 nM.

With `CN(C)C(=O)N1CCCC(Cn2ncc3cnc(Nc4cnn(C)c4)nc32)C1` (stereo not shown) [Example 65, N,N-dimethyl-3-((6-((1-methyl-1H-pyrazol-4-yl)amino)-1H-pyrazolo[3,4-d]pyrimidin-1-yl)methyl)piperidine-1-carboxamide], the IC50 in experiment [1] was less than 100 nM; in experiment [2], 1000 to 10000 nM.
